Article PMC8780828 (Viruses, 2021)
Entries after “also recorded” stand apart in the source; their conditions may differ. Where two headings read alike, the source gives them in different places.

What was measured:
[1] = tested on: pseudovirus NL4-3ΔEnv-NanoLuc/SARS-CoV-2; assay: organism not typed; type: cell-based; settings: 293T/ACE2
[2] = tested on: pseudovirus NL4-3ΔEnv-NanoLuc/SARS-CoV-2; assay: organism not typed; type: cell-based; settings: HT-1080; n=3
[3] = tested on: pseudovirus NL4-3ΔEnv-NanoLuc/SARS-CoV-2; assay: organism not typed; type: cell-based; settings: A549-ACE2; n=3
[4] = tested on: pseudovirus NL4-3ΔEnv-NanoLuc/SARS-CoV; assay: microbe, parasite or virus in culture; type: cell-based; settings: Severe acute respiratory syndrome coronavirus, 293T/ACE2; n=3
[5] = tested on: pseudovirus NL4-3ΔEnv-NanoLuc/SARS-CoV; assay: microbe, parasite or virus in culture; type: cell-based; settings: Severe acute respiratory syndrome coronavirus, HT-1080; n=3; read-out: IC50
[6] = tested on: pseudovirus NL4-3ΔEnv-NanoLuc/SARS-CoV; assay: microbe, parasite or virus in culture; type: cell-based; settings: Severe acute respiratory syndrome coronavirus, A549-ACE2; n=3; read-out: IC50
[7] = tested on: pseudovirus NL4-3ΔEnv-NanoLuc/MERS-CoV; assay: microbe, parasite or virus in culture; type: cell-based; settings: Middle East respiratory syndrome-related coronavirus, Huh-7; n=3; read-out: IC50
[8] = tested on: pseudovirus NL4-3ΔEnv-NanoLuc/MERS-CoV; assay: microbe, parasite or virus in culture; type: cell-based; settings: Middle East respiratory syndrome-related coronavirus, MRC5; n=3; read-out: IC50
[9] = tested on: control pseudovirus NL4-3.Luc.R-E-/A-MLV; assay: Control pseudovirus A-MLV assay in 293T/ACE2 cells; type: cell-based, amphotropic murine leukemia virus (A-MLV); settings: NL43, 293T/ACE2
[10] = tested on: NL4-3ΔEnv-NanoLuc/SARS-CoV-2; assay: organism not typed; type: cell-based
[11] = tested on: pseudovirus NL4-3ΔEnv-NanoLuc/SARS-CoV-2; assay: SARS-CoV-2 pseudovirus assay with pre-treated 293T/ACE2 cells; type: cell-based; settings: 293T/ACE2 cells pre-treated with compound 30 min before infection
[12] = tested on: SARS-CoV-2 (US_WA-1/2020); type: cell-based
[13] = tested on: MERS-CoV pseudovirus; assay: microbe, parasite or virus in culture; type: cell-based; settings: Middle East respiratory syndrome-related coronavirus
[14] = in vitro; settings: human
[15] = in vitro; settings: human; remark: listed apart in the source
[16] = biological target: β-lactamase; type: biochemical
[17] = tested on: Trypsin; type: biochemical
[18] = biological target: malate dehydrogenase (MDH); type: biochemical
[19] = in vitro; settings: both, human, microsomes, pH 7.4
[20] = tested on: SARS-CoV-2; settings: A549-hACE2 cells; NLuc-based assay; cited from earlier work
[21] = tested on: SARS-CoV-2; settings: Vero E6 cells; NLuc-based assay; cited from earlier work
[22] = biological target: FLuc (Photinus pyralis, UniProt P08659); type: biochemical
Sequence of FLuc (P08659 whole entry): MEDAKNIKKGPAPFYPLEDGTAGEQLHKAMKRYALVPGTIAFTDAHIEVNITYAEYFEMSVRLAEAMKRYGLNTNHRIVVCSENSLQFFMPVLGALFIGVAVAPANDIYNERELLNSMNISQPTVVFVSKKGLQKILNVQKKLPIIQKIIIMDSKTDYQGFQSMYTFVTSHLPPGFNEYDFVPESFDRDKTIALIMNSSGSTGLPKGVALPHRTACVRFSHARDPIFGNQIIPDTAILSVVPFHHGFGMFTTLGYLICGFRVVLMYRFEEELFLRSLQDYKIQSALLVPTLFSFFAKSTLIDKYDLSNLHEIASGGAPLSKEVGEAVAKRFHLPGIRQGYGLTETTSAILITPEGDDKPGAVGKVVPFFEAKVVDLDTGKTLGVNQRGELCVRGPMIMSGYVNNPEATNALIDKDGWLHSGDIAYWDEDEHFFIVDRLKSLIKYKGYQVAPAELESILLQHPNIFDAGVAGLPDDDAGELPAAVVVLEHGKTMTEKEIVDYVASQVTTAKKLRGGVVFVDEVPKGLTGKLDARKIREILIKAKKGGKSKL

Q: With Cc1c(C(=O)O)cncc1-c1ccc(/C=C2\SC(=S)N(CCc3ccccc3)C2=O)o1 [NBCoV9] as the molecule, how does the IC50 [1] read?
A: 342 ± 46 nM

Q: And the IC50 [2]?
A: 365 ± 73 nM

Q: What about the IC50 [3] of the same molecule?
A: 596 ± 42 nM

Q: And the IC50 [4]?
A: 217 ± 22 nM

Q: What about the IC50 [5] of the same molecule?
A: 246 ± 10 nM

Q: And the IC50 [6]?
A: 350 ± 15 nM

Q: And the IC50 [7]?
A: 214 ± 23 nM

Q: What about the IC50 [8] of the same molecule?
A: 232 ± 17 nM

Q: And the IC50 [9]?
A: 1630 ± 118 nM

Q: And the “IC100 (range of IC100 values detected in the three cell lines)” value [10]?
A: 2 to 3 µM

Q: And the IC50 [11]?
A: > 2000 nM

Q: What about the IC100 [12] of the same molecule?
A: > 10 µM

Q: And the IC50 [13]?
A: ~200 nM

Q: For O=C1C(=Cc2ccc(-c3ccc(Cl)cc3)o2)SC(=S)N1CCc1ccccc1 [NBCoV15, 5-((5-(4-chlorophenyl)furan-2-yl)methylene)-3-phenethyl-2-thioxothiazolidin-4-one], which IC50 [1] is on record?
A: > 2000 nM

Q: And the IC50 [2]?
A: > 2000 nM

Q: And the “antiviral activity against SARS-CoV-2 pseudovirus” value [10]?
A: virtually no inhibition; also recorded: no antiviral activity; also recorded: no antiviral potency

Q: What does the source list for O=C1NC(=S)S/C1=C\c1ccc(-c2ccc(Cl)c(C(=O)O)c2)o1 [NBCoV17]?
A: IC50 [1]: > 2000 nM; IC50 [2]: > 2000 nM; antiviral activity against SARS-CoV-2 pseudovirus [10]: no antiviral activity; also recorded: did not show any inhibitory activities; CC50 [14]: > 100000 nM; CC50 [15]: > 100000 nM

Q: Which results are given for C#CCN1C(=O)/C(=C/c2ccc(-c3ccc(Cl)c(C(=O)O)c3)o2)SC1=S [NBCoV28]?
A: IC50 [1]: > 2000 nM; IC50 [2]: > 2000 nM; antiviral activity against SARS-CoV-2 pseudovirus [10]: no antiviral activity; also recorded: did not show any inhibitory activities; CC50 [14]: > 100000 nM; CC50 [15]: 92000 ± 3000 nM

Q: Which results are given for O=C1NC(=S)S/C1=C\c1ccc(-c2ccc(C(=O)O)cc2)o1 [NBCoV34]?
A: IC50 [1]: > 2000 nM; IC50 [2]: > 2000 nM; antiviral activity against SARS-CoV-2 pseudovirus [10]: no antiviral activity; also recorded: no inhibitory activity; IC50 [16]: > 2000 nM; IC50 [17]: > 2000 nM; IC50 [18]: > 2000 nM; CC50 [14]: 83000 ± 4000 nM; CC50 [15]: ~100000 nM

Q: Which results are given for C[C@]12CC[C@H]3[C@@H](CCC4=CC(=O)CC[C@@]43C)[C@@H]1CC[C@@H]2O [Testosterone, reference compound]?
A: half-life [19]: 11.3 min; microsomal CLint [19]: 122 µL/min/mg

Q: With CCC(CC)COC(=O)[C@H](C)N[P@](=O)(OC[C@H]1O[C@@](C#N)(c2ccc3c(N)ncnn23)[C@H](O)[C@@H]1O)Oc1ccccc1 [remdesivir] as the molecule, how does the antiviral potency [20] read?
A: 115 nM

Q: And the antiviral potency [21]?
A: 1280 nM

Q: With Oc1ccc(/C=C/c2cc(O)cc(O)c2)cc1 [resveratrol] as the molecule, how does the “effect on FLuc activity” value [22] read?
A: completely blocked
